According to patent publication US6534524B1, “Indazole compounds and pharmaceutical compositions for inhibiting protein kinases, and methods for their use” (Agouron Pharmaceuticals, Inc., priority 1999, dated 2003):

Test system: human umbilical vein endothelial cells (HUVEC)
Experiment: HUVEC proliferation assay (VEGF-stimulated, MTT);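 as to % inhibition of the proliferation of HUVEC: relative to VEGF-stimulated control minus starvation-medium baseline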
Type: cell-based
Settings: crude reaction mixtures; for % inhibition: Library III, HUVEC proliferation, nominal concentration of 0.5 nM
[1] = Library II, Y=S, 0.5 mM (column head; text: nominal 0.5 nM)
[2] = Library II, Y=S, 2 mM (column head; text: nominal 2 nM)
[3] = Library I, Y = CO, nominal concentration of 10 nM
[4] = Library I, Y = NH, nominal concentration of 10 nM
[5] = Library I, Y = O, nominal concentration of 10 nM

With `O=C(Nc1ccccc1F)c1ccccc1Sc1ccc2c(/C=C/c3ccccn3)n[nH]c2c1` the “% inhibition” value was 17%.
In the case of `O=C(Nc1ccc2cccc(O)c2n1)c1ccccc1Sc1ccc2c(/C=C/c3ccccn3)n[nH]c2c1`, the “% inhibition” value is reported as 33%.
In the case of `O=C(Nc1cccc2ccccc12)c1ccccc1Sc1ccc2c(/C=C/c3ccccn3)n[nH]c2c1`, the “% inhibition” value is reported as −33%.
In the case of `O=C(Nc1ccccc1)c1ccccc1Sc1ccc2c(/C=C/c3ccccn3)n[nH]c2c1` [drawing 1131], the “% inhibition” value is reported as 11%.
With `O=C(Nc1nnn[nH]1)c1ccccc1Sc1ccc2c(/C=C/c3ccccn3)n[nH]c2c1` the “% inhibition of the proliferation of HUVEC” value (“% inhibition … of HUVEC” for short) [1] was 21% and the “% inhibition … of HUVEC” value [2] was 64%.
`CC(C)OCCCNC(=O)c1ccccc1Sc1ccc2c(/C=C/c3ccccn3)n[nH]c2c1` was tested, and the “% inhibition … of HUVEC” value [1] was 34% and the “% inhibition … of HUVEC” value [2] was 99%.
In the case of `O=C(Nc1cc(O)nc(O)n1)c1ccccc1Sc1ccc2c(/C=C/c3ccccn3)n[nH]c2c1`, the “% inhibition” value is reported as 3%.
With `O=C(NCCc1ccccc1Cl)c1ccccc1Sc1ccc2c(/C=C/c3ccccn3)n[nH]c2c1` the “% inhibition” value was 9%.
With `N#Cc1nc(NC(=O)c2ccccc2Sc2ccc3c(/C=C/c4ccccn4)n[nH]c3c2)[nH]c1C#N` the “% inhibition” value was −28%.
In the case of `O=C(Nc1ccc(C(F)(F)F)cc1)c1ccccc1Sc1ccc2c(/C=C/c3ccccn3)n[nH]c2c1`, the “% inhibition” value is reported as −3%.
In the case of `CC1C(=O)NCCN1C(=O)c1ccc2c(-c3nc4ccccc4[nH]3)n[nH]c2c1` (stereo not drawn), the “% inhibition … of HUVEC” value [3] is reported as 12%, the “% inhibition … of HUVEC” value [4] is reported as −3% and the “% inhibition … of HUVEC” value [5] is reported as 40%.
`Cc1ccc(CNC(=O)c2ccccc2Sc2ccc3c(/C=C/c4ccccn4)n[nH]c3c2)cc1` was tested, and the “% inhibition … of HUVEC” value [1] was 20% and the “% inhibition … of HUVEC” value [2] was 92%.
For `COC(=O)c1nccnc1NC(=O)c1ccccc1Sc1ccc2c(/C=C/c3ccccn3)n[nH]c2c1`, the “% inhibition” value was 7%.
For `CNNC(=O)c1ccccc1Sc1ccc2c(/C=C/c3ccccn3)n[nH]c2c1`, the “% inhibition … of HUVEC” value [1] was 13% and the “% inhibition … of HUVEC” value [2] was 31%.
In the case of `Cc1nc(NC(=O)c2ccccc2Sc2ccc3c(/C=C/c4ccccn4)n[nH]c3c2)n[nH]1`, the “% inhibition” value is reported as 0%.
With `O=C(Nc1ccc2c(c1)OCCO2)c1ccccc1Sc1ccc2c(/C=C/c3ccccn3)n[nH]c2c1` the “% inhibition” value was −1%.
For `O=C(Nc1ccncc1)c1ccc2c(-c3nc4ccccc4[nH]3)n[nH]c2c1`, the “% inhibition … of HUVEC” value [3] was 33%, the “% inhibition … of HUVEC” value [4] was 13% and the “% inhibition … of HUVEC” value [5] was 42%.
For `COc1ccccc1CCNC(=O)c1ccccc1Sc1ccc2c(/C=C/c3ccccn3)n[nH]c2c1`, the “% inhibition” value was 10%.
For `O=C(NC1CCOC1=O)c1ccccc1Sc1ccc2c(/C=C/c3ccccn3)n[nH]c2c1` (stereo not drawn), the “% inhibition” value was 3%.
With `O=C(NC(CO)CO)c1ccccc1Sc1ccc2c(/C=C/c3ccccn3)n[nH]c2c1` the “% inhibition … of HUVEC” value [1] was 48% and the “% inhibition … of HUVEC” value [2] was 8%.
For `O=C(Nc1ccc2[nH]c(=O)[nH]c2c1)c1ccc2c(-c3nc4ccccc4[nH]3)n[nH]c2c1` [drawing 582], the “% inhibition … of HUVEC” value [3] was 42%, the “% inhibition … of HUVEC” value [4] was 6% and the “% inhibition … of HUVEC” value [5] was 13%.
In the case of `CC(C)Oc1cccc(NC(=O)c2ccccc2Sc2ccc3c(/C=C/c4ccccn4)n[nH]c3c2)c1`, the “% inhibition” value is reported as 1%.
With `CCCCC(=O)NNC(=O)c1ccccc1Sc1ccc2c(/C=C/c3ccccn3)n[nH]c2c1` the “% inhibition … of HUVEC” value [1] was 40% and the “% inhibition … of HUVEC” value [2] was 94%.
For `O=C(Nc1cc(O)c2ccccc2n1)c1ccccc1Sc1ccc2c(/C=C/c3ccccn3)n[nH]c2c1`, the “% inhibition” value was 4%.
For `Cc1cc(C)nc(NC(=O)c2ccccc2Sc2ccc3c(/C=C/c4ccccn4)n[nH]c3c2)c1`, the “% inhibition” value was 3%.
With `CN(C)CCCCCCNC(=O)c1ccccc1Sc1ccc2c(/C=C/c3ccccn3)n[nH]c2c1` the “% inhibition … of HUVEC” value [1] was 42% and the “% inhibition … of HUVEC” value [2] was 22%.
`COc1cccc(OC)c1CNC(=O)c1ccccc1Sc1ccc2c(/C=C/c3ccccn3)n[nH]c2c1` was tested, and the “% inhibition” value was −10%.
For `O=C(NCCSCCO)c1ccccc1Sc1ccc2c(/C=C/c3ccccn3)n[nH]c2c1`, the “% inhibition” value was −31%.
In the case of `O=C(Nc1cccc(-c2ccccc2)c1)c1ccccc1Sc1ccc2c(/C=C/c3ccccn3)n[nH]c2c1`, the “% inhibition” value is reported as −13%.
In the case of `O=C(c1ccc2c(-c3nc4ccccc4[nH]3)n[nH]c2c1)N1CCCC(O)C1` (stereo not drawn), the “% inhibition … of HUVEC” value [3] is reported as 37%, the “% inhibition … of HUVEC” value [4] is reported as −5% and the “% inhibition … of HUVEC” value [5] is reported as 20%.
In the case of `CN(C)C(=O)c1ccc2c(-c3nc4ccccc4[nH]3)n[nH]c2c1`, the “% inhibition … of HUVEC” value [3] is reported as 35%, the “% inhibition … of HUVEC” value [4] is reported as −9% and the “% inhibition … of HUVEC” value [5] is reported as 42%.
For `CN(C)c1ccc(NC(=O)c2ccccc2Sc2ccc3c(/C=C/c4ccccn4)n[nH]c3c2)cc1`, the “% inhibition” value was 18%.
With `C=CCC(NC(=O)c1ccc2c(-c3nc4ccccc4[nH]3)n[nH]c2c1)c1ccccn1` (stereo not drawn) [drawing 609] the “% inhibition … of HUVEC” value [1] was 37% and the “% inhibition … of HUVEC” value [2] was 16%.
In the case of `O=C(NC1CCCCC1C1CCCCC1)c1ccccc1Sc1ccc2c(/C=C/c3ccccn3)n[nH]c2c1` (stereo not drawn), the “% inhibition” value is reported as 11%.
`CCOc1ccccc1CCNC(=O)c1ccccc1Sc1ccc2c(/C=C/c3ccccn3)n[nH]c2c1` was tested, and the “% inhibition” value was 1%.
In the case of `O=C(Nc1cccc(Cl)c1)c1ccccc1Sc1ccc2c(/C=C/c3ccccn3)n[nH]c2c1` [drawing 1041], the “% inhibition” value is reported as −15%.
For `COC(OC)C(C)NC(=O)c1ccccc1Sc1ccc2c(/C=C/c3ccccn3)n[nH]c2c1` (stereo not drawn), the “% inhibition” value was 0%.
With `Cc1ccc(CO)cc1NC(=O)c1ccccc1Sc1ccc2c(/C=C/c3ccccn3)n[nH]c2c1` the “% inhibition” value was 1%.
In the case of `O=C(Nc1ccc2ncccc2c1)c1ccccc1Sc1ccc2c(/C=C/c3ccccn3)n[nH]c2c1`, the “% inhibition” value is reported as 1%.
For `O=C(Nc1cccc2cccnc12)c1ccccc1Sc1ccc2c(/C=C/c3ccccn3)n[nH]c2c1`, the “% inhibition” value was 3%.
`O=C(NCCN1CCOCC1)c1ccc2c(-c3nc4ccccc4[nH]3)n[nH]c2c1` was tested, and the “% inhibition … of HUVEC” value [3] was −1%, the “% inhibition … of HUVEC” value [4] was 15% and the “% inhibition … of HUVEC” value [5] was 30%.
For `O=C(NCc1cc(F)ccc1F)c1ccccc1Sc1ccc2c(/C=C/c3ccccn3)n[nH]c2c1`, the “% inhibition” value was 15%.
`N=C(N)CNC(=O)c1ccccc1Sc1ccc2c(/C=C/c3ccccn3)n[nH]c2c1` was tested, and the “% inhibition … of HUVEC” value [1] was 7% and the “% inhibition … of HUVEC” value [2] was −1%.
`CC1CCCC(NC(=O)c2ccccc2Sc2ccc3c(/C=C/c4ccccn4)n[nH]c3c2)C1` (stereo not drawn) was tested, and the “% inhibition … of HUVEC” value [1] was 69% and the “% inhibition … of HUVEC” value [2] was 59%.
For `O=C(NCCCO)c1ccccc1Sc1ccc2c(/C=C/c3ccccn3)n[nH]c2c1`, the “% inhibition … of HUVEC” value [1] was 24% and the “% inhibition … of HUVEC” value [2] was 31%.
For `O=C(Nc1ccc(Cl)cn1)c1ccccc1Sc1ccc2c(/C=C/c3ccccn3)n[nH]c2c1`, the “% inhibition” value was −23%.
In the case of `CCOc1ccc(NC(=O)c2ccccc2Sc2ccc3c(/C=C/c4ccccn4)n[nH]c3c2)cc1`, the “% inhibition” value is reported as 16%.
For `CCC(C)C(CO)NC(=O)c1ccccc1Sc1ccc2c(C=Cc3ccccn3)n[nH]c2c1` (stereo not drawn), the “% inhibition” value was −40%.
In the case of `COC(=O)c1ccc(NC(=O)c2ccccc2Sc2ccc3c(/C=C/c4ccccn4)n[nH]c3c2)o1`, the “% inhibition” value is reported as −1%.
For `CC(C)C(NC(=O)c1ccccc1Sc1ccc2c(/C=C/c3ccccn3)n[nH]c2c1)C(C)C`, the “% inhibition … of HUVEC” value [1] was 18% and the “% inhibition … of HUVEC” value [2] was −2%.
For `CC(C)(CO)NC(=O)c1ccccc1Sc1ccc2c(/C=C/c3ccccn3)n[nH]c2c1`, the “% inhibition” value was −2%.
With `O=C(Nc1ccc2c(c1)C(=O)NC2=O)c1ccccc1Sc1ccc2c(/C=C/c3ccccn3)n[nH]c2c1` the “% inhibition” value was −31%.
For `O=C(Nc1nccc2ccccc12)c1ccccc1Sc1ccc2c(/C=C/c3ccccn3)n[nH]c2c1`, the “% inhibition” value was 4%.
With `Cc1cccc(NC(=O)c2ccccc2Sc2ccc3c(/C=C/c4ccccn4)n[nH]c3c2)n1` the “% inhibition” value was 10%.
`O=C(Nc1ccncc1)c1ccccc1Sc1ccc2c(/C=C/c3ccccn3)n[nH]c2c1` was tested, and the “% inhibition” value was 6%.
In the case of `CC(C)CCC(C)NC(=O)c1ccccc1Sc1ccc2c(/C=C/c3ccccn3)n[nH]c2c1` (stereo not drawn), the “% inhibition … of HUVEC” value [1] is reported as 6% and the “% inhibition … of HUVEC” value [2] is reported as 44%.
`CS(=O)(=O)c1ccc(NC(=O)c2ccccc2Sc2ccc3c(/C=C/c4ccccn4)n[nH]c3c2)cc1` was tested, and the “% inhibition” value was 19%.
In the case of `O=C(c1ccc2c(-c3nc4ccccc4[nH]3)n[nH]c2c1)N1CCN(C(=O)c2ccco2)CC1`, the “% inhibition … of HUVEC” value [3] is reported as −20%, the “% inhibition … of HUVEC” value [4] is reported as 6% and the “% inhibition … of HUVEC” value [5] is reported as 25%.
For `O=C(NC1CCCCC1)c1ccc2c(-c3nc4ccccc4[nH]3)n[nH]c2c1`, the “% inhibition … of HUVEC” value [3] was 3%, the “% inhibition … of HUVEC” value [4] was −3% and the “% inhibition … of HUVEC” value [5] was 46%.
For `CC(C)c1cccc(C(C)C)c1NC(=O)c1ccccc1Sc1ccc2c(/C=C/c3ccccn3)n[nH]c2c1`, the “% inhibition” value was −7%.
`COc1ccc(CCNC(=O)c2ccccc2Sc2ccc3c(/C=C/c4ccccn4)n[nH]c3c2)cc1OC` was tested, and the “% inhibition” value was −3%.
In the case of `COc1cc(NC(=O)c2ccccc2Sc2ccc3c(/C=C/c4ccccn4)n[nH]c3c2)cc(C(F)(F)F)c1`, the “% inhibition” value is reported as 10%.
For `O=Nc1c(O)nc(O)nc1NC(=O)c1ccccc1Sc1ccc2c(/C=C/c3ccccn3)n[nH]c2c1`, the “% inhibition” value was −18%.
For `CN1CCCC1CCNC(=O)c1ccccc1Sc1ccc2c(/C=C/c3ccccn3)n[nH]c2c1` (stereo not drawn), the “% inhibition … of HUVEC” value [1] was 30% and the “% inhibition … of HUVEC” value [2] was 23%.
With `O=C(NCCS(=O)(=O)O)c1ccccc1Sc1ccc2c(/C=C/c3ccccn3)n[nH]c2c1` the “% inhibition … of HUVEC” value [1] was 16% and the “% inhibition … of HUVEC” value [2] was 21%.
With `O=C(Nc1nc(Cl)ncc1F)c1ccccc1Sc1ccc2c(/C=C/c3ccccn3)n[nH]c2c1` the “% inhibition” value was 11%.
`CN(C)CC(C)(C)CNC(=O)c1ccccc1Sc1ccc2c(/C=C/c3ccccn3)n[nH]c2c1` was tested, and the “% inhibition … of HUVEC” value [1] was 38% and the “% inhibition … of HUVEC” value [2] was 5%.
For `N#CCONC(=O)c1ccccc1Sc1ccc2c(/C=C/c3ccccn3)n[nH]c2c1`, the “% inhibition … of HUVEC” value [1] was 16% and the “% inhibition … of HUVEC” value [2] was 2%.
In the case of `COC(=O)c1ccccc1NC(=O)c1ccccc1Sc1ccc2c(/C=C/c3ccccn3)n[nH]c2c1`, the “% inhibition” value is reported as 3%.
